Assay results from paper PMC11208149, “Structure of plant photosystem I in a native assembly state defines PsaF as a regulatory checkpoint” (Nature Plants, 2024).

Experiments:
mature PSI = target: T1, mature PSI (Avena sativa, UniProt A0A3G1AUL2+A0A3G1AZK6); assay: cryo-EM structure ([…] Å); type: binding
T1 construct: gene psaA; native PSI-LHCI complex purified from mature green leaves, detergent-solubilised; with Photosystem I iron-sulfur center; Photosystem I reaction center subunit II, chloroplastic; Photosystem I reaction center subunit IV, chloroplastic; Photosystem I reaction center subunit III, chloroplastic; Photosystem I reaction center subunit V, chloroplastic; Photosystem I reaction center subunit VI, chloroplastic; Photosystem I reaction center subunit VIII; Photosystem I reaction center subunit IX; Photosystem I reaction center subunit psaK, chloroplastic; Photosystem I reaction center subunit XI, chloroplastic; Photosystem I reaction center subunit N, chloroplastic
T1 sequence (A0A3G1AUL2 1-750): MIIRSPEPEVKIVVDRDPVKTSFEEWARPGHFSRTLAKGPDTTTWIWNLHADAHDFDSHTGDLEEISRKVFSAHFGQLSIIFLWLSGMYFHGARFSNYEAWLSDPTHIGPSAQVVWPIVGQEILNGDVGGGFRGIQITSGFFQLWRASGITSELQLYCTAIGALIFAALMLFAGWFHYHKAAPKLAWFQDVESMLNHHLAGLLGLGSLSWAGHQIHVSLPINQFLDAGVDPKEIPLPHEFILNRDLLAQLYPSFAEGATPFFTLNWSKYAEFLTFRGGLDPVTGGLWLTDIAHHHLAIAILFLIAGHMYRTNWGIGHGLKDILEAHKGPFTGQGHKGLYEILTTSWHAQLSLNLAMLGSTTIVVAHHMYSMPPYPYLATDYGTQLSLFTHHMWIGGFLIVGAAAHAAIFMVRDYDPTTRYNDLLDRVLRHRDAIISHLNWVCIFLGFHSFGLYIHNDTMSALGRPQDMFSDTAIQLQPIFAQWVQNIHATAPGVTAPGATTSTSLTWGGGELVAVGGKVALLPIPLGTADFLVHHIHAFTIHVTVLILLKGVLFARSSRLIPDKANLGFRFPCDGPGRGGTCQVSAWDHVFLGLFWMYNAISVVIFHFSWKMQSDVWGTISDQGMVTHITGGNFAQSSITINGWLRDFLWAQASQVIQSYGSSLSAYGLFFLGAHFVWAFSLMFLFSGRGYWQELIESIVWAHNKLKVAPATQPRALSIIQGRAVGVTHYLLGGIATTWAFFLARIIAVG
T1 sequence (A0A3G1AZK6 1-734): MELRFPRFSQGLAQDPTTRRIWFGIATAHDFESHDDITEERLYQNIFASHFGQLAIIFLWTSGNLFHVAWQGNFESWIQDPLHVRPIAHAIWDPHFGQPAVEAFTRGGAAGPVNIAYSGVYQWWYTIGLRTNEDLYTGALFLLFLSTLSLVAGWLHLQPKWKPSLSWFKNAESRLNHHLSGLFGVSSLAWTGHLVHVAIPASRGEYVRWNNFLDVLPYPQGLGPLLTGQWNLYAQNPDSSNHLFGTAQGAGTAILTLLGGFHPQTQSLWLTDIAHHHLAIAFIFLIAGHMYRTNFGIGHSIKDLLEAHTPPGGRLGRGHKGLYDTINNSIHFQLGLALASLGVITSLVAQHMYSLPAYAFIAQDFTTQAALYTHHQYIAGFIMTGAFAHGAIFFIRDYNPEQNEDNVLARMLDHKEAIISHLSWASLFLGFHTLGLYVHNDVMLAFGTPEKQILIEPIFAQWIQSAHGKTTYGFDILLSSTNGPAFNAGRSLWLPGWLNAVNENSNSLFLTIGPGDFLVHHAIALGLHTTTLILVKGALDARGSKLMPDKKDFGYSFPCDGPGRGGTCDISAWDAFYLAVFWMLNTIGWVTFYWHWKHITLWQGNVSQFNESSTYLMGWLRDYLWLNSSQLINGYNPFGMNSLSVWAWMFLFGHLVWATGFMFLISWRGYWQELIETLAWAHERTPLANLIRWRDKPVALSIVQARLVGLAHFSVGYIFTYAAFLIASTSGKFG
T1 sequence (A0A3G1ATU7 2-81 partner): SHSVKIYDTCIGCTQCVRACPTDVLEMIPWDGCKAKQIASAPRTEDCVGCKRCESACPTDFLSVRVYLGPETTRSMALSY
T1 sequence (A0A3G1AZM6 1-36 partner): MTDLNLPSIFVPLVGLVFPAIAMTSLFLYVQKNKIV
T1 sequence (A0A3G1AZP2 1-42 partner): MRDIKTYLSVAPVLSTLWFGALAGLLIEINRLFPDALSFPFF

[1] = target: T2, pre-PSI-1 (PSI assembly intermediate) (Avena sativa, UniProt A0A3G1AUL2+A0A3G1AZK6); assay: cryo-EM structure ([…] Å); type: binding; conditions: native cofactor; site PQN844 of PsaA
T2 construct: gene psaA; native eight-subunit complex from thylakoids of greening seedlings (10 h light), DDM-solubilised; lacks PsaF, PsaG, PsaJ, PsaK, PsaN and LHCI; with Photosystem I iron-sulfur center; Photosystem I reaction center subunit II, chloroplastic; Photosystem I reaction center subunit IV, chloroplastic; Photosystem I reaction center subunit VI, chloroplastic; Photosystem I reaction center subunit VIII; Photosystem I reaction center subunit XI, chloroplastic
T2 sequence (A0A3G1AUL2 1-750): as the sequence (A0A3G1AUL2 1-750) above
T2 sequence (A0A3G1AZK6 1-734): as the sequence (A0A3G1AZK6 1-734) above
T2 sequence (A0A3G1ATU7 2-81 partner): as the sequence (A0A3G1ATU7 2-81 partner) above
T2 sequence (A0A3G1AZM6 1-36 partner): as the sequence (A0A3G1AZM6 1-36 partner) above

| Compound | cryo-EM structure (2.2 Å) (mature PSI; native cofactor, site PQN844 of PsaA) | cryo-EM structure (2.1 Å) [1] | cryo-EM structure (2.2 Å) (mature PSI; native pigment, site BCR856, near the PSI core - LHCI interface) |
| --- | --- | --- | --- |
| CC1=C(C/C=C(\C)CCC[C@H](C)CCC[C@H](C)CCCC(C)C)C(=O)c2ccccc2C1=O [PQN, phylloquinone] | phylloquinone PQN844 (PsaA) shows an altered conformation of the isoprenoid chain | phylloquinone PQN844 (PsaA) shows an altered conformation of the isoprenoid chain |  |
| CC1=C(/C=C/C(C)=C/C=C/C(C)=C/C=C/C=C(C)/C=C/C=C(C)/C=C/C2=C(C)CCCC2(C)C)C(C)(C)CCC1 [BCR, β-carotene] |  |  | the head group of β-carotene BCR856 resides in the mature structure |
